Data: US12377112B2, “Methods of treating neurocognitive disorders, chronic pain and reducing inflammation” (priority 2019, dated 2025)
Marks after values point to notes of the source that are not given here.

Test system: male C57BL/6 mice
Test: Chronic constriction injury (CCI) model of neuropathic pain, von Frey paw withdrawal threshold
Format: in vivo, mouse
Experimental: To determine whether psilocybin may alleviate chronic neuropathic pain, various doses of psilocybin were tested in a mouse model of chronic constriction injury (CCI).
Male C57BL/6 mice (age 6-7 weeks, source: Charles River UK) were housed in standard caging in groups of 2-4, with free access to food (5CR4, Purina) and water (except during placement in the test box) on a 12/12 light/dark cycle.
All animals underwent behavioral testing of mechanical allodynia on three consecutive days (Day −2, Day−1 and Day 0) prior to surgery in order to determine the baseline withdrawal thresholds. Briefly, Static mechanical (tactile) allodynia was assessed by measurement of withdrawal threshold using calibrated (force; g) von-Frey monofilaments (Touch-Test Sensory Evaluator; Scientific Marketing Associates) applied to the plantar surface of the hind-paw. The animals were placed in individual Perspex boxes on a raised metal mesh for 30-40 minutes before the test. A series of graduated von Frey hairs (0.07, 0.16, 0.4, 0.6 and 1 g) was applied in sequence with a protocol of 1 second on 1 second off, repeated 10 times. Each hair was applied perpendicularly to the center of the ventral surface of the paw until it slightly bends. The force applied to the hind-paw of the animal to induce 5 responses out of 10 trials was recorded as paw withdrawal threshold (PWT). Three baseline paw withdrawal thresholds were taken on ipsilateral paws. The mean of the last two readings used as the baseline withdrawal threshold.
Subsequently, surgery was performed under anesthesia (Isoflurane mixed with oxygen, 3:1, 2 L/min) to tie three loose ligatures of prolene (7-0, Ethicon) around the sciatic nerve, with 1 mm spacing between each. The nerve was then returned below the muscle layer and the wound closed using absorbable sutures (Vicryl).
Following recovery from surgery, Von Frey assessment of mechanical allodynia was taken on days 19 and 22. Animals were then ranked and randomized (based on a Latin square design) to treatment groups according to the percentage change (compared to pre-surgery baseline) of the mean mechanical withdrawal threshold observed on days 19 and 22. Only those animals showing a PWT percentage change of >50% from pre-surgery baseline were included in the study.
On day 23, the animals were dosed with psilocybin (1, 3 or 10 mg/kg by intraperitoneal injection) or vehicle (10 mL/kg by intraperitoneal injection). Nerve pain medication Pregabalin (15 mg/kg administered orally) was also used as a positive control. Allodynia was then assessed at 0.5, 4 and 24 hours post-treatment timepoint (PTT).

Compound: CN(C)CCc1c[nH]c2cccc(OP(=O)(O)O)c12 [Psilocybin, psilocybin]
- Force-induced paw withdrawal, mean (1 mg/kg IP group, D19-22 Neuropathic baseline (before dosing)): 0.16 g
- Force-induced paw withdrawal, mean (1 mg/kg IP group, D-2 D-1 Baseline (before surgery and dosing)): 0.72 g
- Force-induced paw withdrawal, mean (1 mg/kg IP, D23 0.5 hours PTT): 0.16 g
- Force-induced paw withdrawal, mean (1 mg/kg IP, D23 4 hours PTT): 0.16 g
- Force-induced paw withdrawal, mean (1 mg/kg IP, D24 24 hours PTT): 0.15 g
- Force-induced paw withdrawal, mean (3 mg/kg IP group, D19-22 Neuropathic baseline (before dosing)): 0.16 g
- Force-induced paw withdrawal, mean (3 mg/kg IP group, D-2 D-1 Baseline (before surgery and dosing)): 0.68 g
- Force-induced paw withdrawal, mean (3 mg/kg IP, D23 0.5 hours PTT): 0.22 g
- Force-induced paw withdrawal, mean (3 mg/kg IP, D23 4 hours PTT): 0.15 g
- Force-induced paw withdrawal, mean (3 mg/kg IP, D24 24 hours PTT): 0.25 g
- Force-induced paw withdrawal, mean (10 mg/kg IP group, D19-22 Neuropathic baseline (before dosing)): 0.17 g
- Force-induced paw withdrawal, mean (10 mg/kg IP group, D-2 D-1 Baseline (before surgery and dosing)): 0.79 g
- Force-induced paw withdrawal, mean (10 mg/kg IP, D23 0.5 hours PTT): 0.38* g
- Force-induced paw withdrawal, mean (10 mg/kg IP, D23 4 hours PTT): 0.51* g
- Force-induced paw withdrawal, mean (10 mg/kg IP, D24 24 hours PTT): 0.25 g
